Data as given in patent US12496298B2, “Natural killer cells” (Imperial College Innovations Limited, priority 2017, dated 2025).

System: Eomes
Assay: RT-qPCR relative expression of Eomes in cultured HPCs
Format: cell-based, mouse
Settings: 5 μM added Day 2, harvested Day 4
Procedure: FIG. 8: HPCs were cultured with or without 5 μM SR8278 added on Day 2. At Day 3, 4 and 5, cells were harvested in order to quantify their relative […] by RT-qPCR. The graphs show relative expression of (A) E4bp4, (B) Id2 and (C) Eomes normalized to the housekeeping gene, Hprt.
HPCs isolated from a WT mouse were cultured as previously (FIG. 2) but the cells were harvested and analysed using RT-qPCR on Day 3, 4 and 5. The relative expression of the E4bp4, Id2 and Eomes genes was compared to the housekeeping gene, Hprt. At Day 4, E4bp4, Id2 and Eomes expression was higher in SR8278 treated samples when compared to the ‘No drug’ control (FIG. 8). The increase in E4bp4 expression disappeared at Day 5 but the increase of Id2 expression remained (FIG. 8B). The upregulation of E4bp4 and its downstream targets happens in a matter of hours and only stays high for a defined period of time.
RNA was extracted using Qiagen RNeasy Micro Kit according to the manufacture's protocol (Qiagen). Centrifugation was done at 8000 g for 15 seconds and the flow through discarded. Briefly, 350 μl of Buffer RLT+10% β-Mercaptoethanol were added to the harvested cells. […] The concentration of RNA in each sample was measured using Nanodrop, and all samples were diluted to the same working concentration. […]

## CCOC(=O)C1Cc2ccccc2CN1C(=O)c1ccc(SC)s1 (stereo not shown) [SR8278, 1,2,3,4-Tetrahydro-2-[[5-(methylthio)-2-thienyl]carbonyl]-3-isoquinolinecarboxylic acid ethyl ester]
  Eomes expression relative to Hprt, compared to 'No drug' control: higher
